Tests used:
Assay in all cases: KINOMEscan competition binding
Settings in all cases: compound 10.0 µM
CSF1R (human) = CSF1R (human) (UniProt P07333)
CHEK1 (human) = CHEK1 (human) (UniProt O14757)
SLK (human) = SLK (human) (UniProt Q9H2G2)
INSRR (human) = INSRR (human) (UniProt P14616)
NTRK2 (human) = NTRK2 (human) (UniProt Q16620)
RPS6KA6 KD1 (human) = RPS6KA6 KD1 (human) (UniProt Q9UK32)
PLK4 (human) = PLK4 (human) (UniProt O00444)
SRPK3 (human) = SRPK3 (human) (UniProt Q9UPE1)
RIPK1 (human) = RIPK1 (human) (UniProt Q13546)
NEK5 (human) = NEK5 (human) (UniProt Q6P3R8)
CAMK1G (human) = CAMK1G (human) (UniProt Q96NX5)
ULK3 (human) = ULK3 (human) (UniProt Q6PHR2)
SRMS (human) = SRMS (human) (UniProt Q9H3Y6)
CAMK2D (human) = CAMK2D (human) (UniProt Q13557)
DCLK3 (human) = DCLK3 (human) (UniProt Q9C098)
PRKCH (human) = PRKCH (human) (UniProt P24723)
TSSK1B (human) = TSSK1B (human) (UniProt Q9BXA7)
EPHA1 (human) = EPHA1 (human) (UniProt P21709)
CSNK2A1 (human) = CSNK2A1 (human) (UniProt P68400)
AXL (human) = AXL (human) (UniProt P30530)
MAP2K1 (human) = MAP2K1 (human) (UniProt Q02750)
MAP2K2 (human) = MAP2K2 (human) (UniProt P36507)
PKN2 (human) = PKN2 (human) (UniProt Q16513)
FGFR1 (human) = FGFR1 (human) (UniProt P11362)
ITK (human) = ITK (human) (UniProt Q08881)
GSK3B (human) = GSK3B (human) (UniProt P49841)
CHUK (human) = CHUK (human) (UniProt O15111)
CDK5 (human) = CDK5 (human) (UniProt Q00535)
TTK (human) = TTK (human) (UniProt P33981)
SYK (human) = SYK (human) (UniProt P43405)
DMPK (human) = DMPK (human) (UniProt Q09013)
LYN (human) = LYN (human) (UniProt P07948)
MAP3K12 (human) = MAP3K12 (human) (UniProt Q12852)
MAPKAPK2 (human) = MAPKAPK2 (human) (UniProt P49137)
MAPK12 (human) = MAPK12 (human) (UniProt P53778)
PKN1 (human) = PKN1 (human) (UniProt Q16512)
FLT1 (human) = FLT1 (human) (UniProt P17948)
RPS6KA4 KD2 (human) = RPS6KA4 KD2 (human) (UniProt O75676)
MARK4 (human) = MARK4 (human) (UniProt Q96L34)
ROCK2 (human) = ROCK2 (human) (UniProt O75116)

CHEK1 (human), sequence (O14757 whole entry, looked up): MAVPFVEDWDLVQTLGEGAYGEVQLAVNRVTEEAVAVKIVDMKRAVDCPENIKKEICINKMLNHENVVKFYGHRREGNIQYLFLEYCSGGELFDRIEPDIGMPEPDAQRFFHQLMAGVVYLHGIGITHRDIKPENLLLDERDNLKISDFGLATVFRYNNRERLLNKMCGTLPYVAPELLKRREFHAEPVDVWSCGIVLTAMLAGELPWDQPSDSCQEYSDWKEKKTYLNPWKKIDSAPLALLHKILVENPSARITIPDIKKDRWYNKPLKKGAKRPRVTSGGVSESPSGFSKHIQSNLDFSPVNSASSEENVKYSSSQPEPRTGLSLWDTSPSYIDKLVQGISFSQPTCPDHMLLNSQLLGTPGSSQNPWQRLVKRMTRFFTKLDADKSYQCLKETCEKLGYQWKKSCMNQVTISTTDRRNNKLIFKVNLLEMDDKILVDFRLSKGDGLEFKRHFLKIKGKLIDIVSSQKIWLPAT
MARK4 (human), sequence (Q96L34 whole entry, looked up): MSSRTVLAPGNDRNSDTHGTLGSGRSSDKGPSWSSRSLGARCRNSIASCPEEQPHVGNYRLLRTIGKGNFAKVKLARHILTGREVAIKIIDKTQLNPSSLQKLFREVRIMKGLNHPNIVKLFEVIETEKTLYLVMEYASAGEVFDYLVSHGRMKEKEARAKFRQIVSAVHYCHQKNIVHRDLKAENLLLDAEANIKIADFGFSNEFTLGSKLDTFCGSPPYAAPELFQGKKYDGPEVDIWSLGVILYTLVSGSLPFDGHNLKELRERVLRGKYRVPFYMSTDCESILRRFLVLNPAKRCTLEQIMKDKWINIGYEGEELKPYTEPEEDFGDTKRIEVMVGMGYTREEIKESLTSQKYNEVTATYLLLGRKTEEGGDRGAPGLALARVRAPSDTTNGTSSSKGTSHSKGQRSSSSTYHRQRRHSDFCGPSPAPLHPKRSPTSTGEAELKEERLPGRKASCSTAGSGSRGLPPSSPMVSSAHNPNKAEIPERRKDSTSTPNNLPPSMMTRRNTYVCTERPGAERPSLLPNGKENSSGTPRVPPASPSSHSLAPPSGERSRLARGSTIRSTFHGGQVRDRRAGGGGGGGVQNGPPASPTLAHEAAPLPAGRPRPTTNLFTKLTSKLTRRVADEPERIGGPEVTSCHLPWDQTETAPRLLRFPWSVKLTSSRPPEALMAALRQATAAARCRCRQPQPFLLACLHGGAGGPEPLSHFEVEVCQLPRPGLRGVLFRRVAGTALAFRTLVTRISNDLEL
MAP2K1 (human), sequence (Q02750 whole entry, looked up): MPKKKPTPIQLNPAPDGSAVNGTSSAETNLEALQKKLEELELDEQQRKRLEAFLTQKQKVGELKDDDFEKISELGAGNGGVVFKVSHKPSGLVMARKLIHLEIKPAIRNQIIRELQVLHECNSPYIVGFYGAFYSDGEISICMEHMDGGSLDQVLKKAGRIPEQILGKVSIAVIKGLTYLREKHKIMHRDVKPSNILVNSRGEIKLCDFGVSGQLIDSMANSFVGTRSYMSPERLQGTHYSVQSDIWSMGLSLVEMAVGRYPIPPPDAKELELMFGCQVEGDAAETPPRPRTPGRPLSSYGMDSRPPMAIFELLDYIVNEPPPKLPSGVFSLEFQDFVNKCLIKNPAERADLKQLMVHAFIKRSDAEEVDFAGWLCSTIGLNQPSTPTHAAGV
RIPK1 (human), sequence (Q13546 whole entry, looked up): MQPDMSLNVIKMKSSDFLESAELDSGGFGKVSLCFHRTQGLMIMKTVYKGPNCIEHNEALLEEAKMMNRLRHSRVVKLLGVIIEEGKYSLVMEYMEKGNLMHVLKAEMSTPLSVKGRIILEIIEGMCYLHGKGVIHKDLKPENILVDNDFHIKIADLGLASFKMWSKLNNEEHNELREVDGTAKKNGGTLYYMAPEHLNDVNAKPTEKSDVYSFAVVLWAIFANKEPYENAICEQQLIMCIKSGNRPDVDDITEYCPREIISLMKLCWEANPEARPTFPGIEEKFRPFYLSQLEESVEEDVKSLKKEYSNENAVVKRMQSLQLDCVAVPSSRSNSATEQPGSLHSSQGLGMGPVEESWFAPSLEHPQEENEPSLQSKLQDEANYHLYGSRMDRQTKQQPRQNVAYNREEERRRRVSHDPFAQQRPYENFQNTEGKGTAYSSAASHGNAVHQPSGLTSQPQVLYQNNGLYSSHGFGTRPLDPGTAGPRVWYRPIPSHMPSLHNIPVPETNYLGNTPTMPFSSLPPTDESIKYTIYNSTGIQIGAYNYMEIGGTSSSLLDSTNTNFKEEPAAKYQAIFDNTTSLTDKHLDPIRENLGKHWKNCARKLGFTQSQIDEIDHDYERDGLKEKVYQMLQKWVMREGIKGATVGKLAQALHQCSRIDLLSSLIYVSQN
CAMK1G (human), sequence (Q96NX5 whole entry, looked up): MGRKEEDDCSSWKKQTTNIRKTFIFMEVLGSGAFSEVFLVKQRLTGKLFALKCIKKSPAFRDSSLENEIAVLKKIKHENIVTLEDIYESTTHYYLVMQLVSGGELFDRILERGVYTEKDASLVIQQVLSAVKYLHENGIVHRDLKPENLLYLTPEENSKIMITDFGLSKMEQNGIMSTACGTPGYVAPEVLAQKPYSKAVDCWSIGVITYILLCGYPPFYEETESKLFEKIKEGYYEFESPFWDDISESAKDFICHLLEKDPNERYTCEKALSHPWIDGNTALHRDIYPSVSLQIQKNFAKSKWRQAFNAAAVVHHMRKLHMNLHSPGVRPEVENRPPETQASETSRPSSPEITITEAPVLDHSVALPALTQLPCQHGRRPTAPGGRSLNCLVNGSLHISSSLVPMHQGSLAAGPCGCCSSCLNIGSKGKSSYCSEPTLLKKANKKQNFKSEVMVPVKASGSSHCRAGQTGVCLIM
CSNK2A1 (human), sequence (P68400 whole entry, looked up): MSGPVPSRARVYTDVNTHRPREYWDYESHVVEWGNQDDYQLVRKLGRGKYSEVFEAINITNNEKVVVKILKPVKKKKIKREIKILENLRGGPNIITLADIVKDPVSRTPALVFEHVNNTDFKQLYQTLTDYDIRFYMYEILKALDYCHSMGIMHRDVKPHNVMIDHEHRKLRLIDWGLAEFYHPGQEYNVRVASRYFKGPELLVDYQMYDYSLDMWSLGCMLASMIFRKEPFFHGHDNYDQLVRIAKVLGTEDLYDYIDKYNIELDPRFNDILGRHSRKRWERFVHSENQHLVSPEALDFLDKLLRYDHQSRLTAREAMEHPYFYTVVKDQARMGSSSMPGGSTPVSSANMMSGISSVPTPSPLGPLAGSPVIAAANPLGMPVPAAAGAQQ
MAP3K12 (human), sequence (Q12852 whole entry, looked up): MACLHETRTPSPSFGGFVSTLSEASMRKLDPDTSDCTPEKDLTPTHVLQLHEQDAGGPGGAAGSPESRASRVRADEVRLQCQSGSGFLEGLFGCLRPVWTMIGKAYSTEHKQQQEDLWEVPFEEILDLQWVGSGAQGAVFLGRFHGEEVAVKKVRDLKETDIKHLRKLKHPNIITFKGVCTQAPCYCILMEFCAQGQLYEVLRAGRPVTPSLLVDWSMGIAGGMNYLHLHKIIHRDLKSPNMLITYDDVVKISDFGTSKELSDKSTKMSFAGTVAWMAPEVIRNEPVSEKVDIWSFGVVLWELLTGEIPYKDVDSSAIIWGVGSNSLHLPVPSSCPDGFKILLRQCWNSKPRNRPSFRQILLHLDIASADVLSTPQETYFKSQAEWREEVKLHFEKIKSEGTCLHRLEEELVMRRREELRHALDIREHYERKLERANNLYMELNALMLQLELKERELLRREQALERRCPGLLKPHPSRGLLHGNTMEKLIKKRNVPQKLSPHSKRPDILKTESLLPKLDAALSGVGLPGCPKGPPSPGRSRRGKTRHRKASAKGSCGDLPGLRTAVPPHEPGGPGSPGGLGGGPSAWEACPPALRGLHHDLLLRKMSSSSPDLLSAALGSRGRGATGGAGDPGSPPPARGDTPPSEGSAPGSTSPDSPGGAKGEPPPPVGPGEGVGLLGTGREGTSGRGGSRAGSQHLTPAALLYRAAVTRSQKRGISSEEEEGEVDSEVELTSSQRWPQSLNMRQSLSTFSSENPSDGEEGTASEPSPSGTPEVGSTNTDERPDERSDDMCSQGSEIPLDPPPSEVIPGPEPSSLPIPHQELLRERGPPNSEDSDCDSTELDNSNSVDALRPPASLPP
CSF1R (human), sequence (P07333 whole entry, looked up): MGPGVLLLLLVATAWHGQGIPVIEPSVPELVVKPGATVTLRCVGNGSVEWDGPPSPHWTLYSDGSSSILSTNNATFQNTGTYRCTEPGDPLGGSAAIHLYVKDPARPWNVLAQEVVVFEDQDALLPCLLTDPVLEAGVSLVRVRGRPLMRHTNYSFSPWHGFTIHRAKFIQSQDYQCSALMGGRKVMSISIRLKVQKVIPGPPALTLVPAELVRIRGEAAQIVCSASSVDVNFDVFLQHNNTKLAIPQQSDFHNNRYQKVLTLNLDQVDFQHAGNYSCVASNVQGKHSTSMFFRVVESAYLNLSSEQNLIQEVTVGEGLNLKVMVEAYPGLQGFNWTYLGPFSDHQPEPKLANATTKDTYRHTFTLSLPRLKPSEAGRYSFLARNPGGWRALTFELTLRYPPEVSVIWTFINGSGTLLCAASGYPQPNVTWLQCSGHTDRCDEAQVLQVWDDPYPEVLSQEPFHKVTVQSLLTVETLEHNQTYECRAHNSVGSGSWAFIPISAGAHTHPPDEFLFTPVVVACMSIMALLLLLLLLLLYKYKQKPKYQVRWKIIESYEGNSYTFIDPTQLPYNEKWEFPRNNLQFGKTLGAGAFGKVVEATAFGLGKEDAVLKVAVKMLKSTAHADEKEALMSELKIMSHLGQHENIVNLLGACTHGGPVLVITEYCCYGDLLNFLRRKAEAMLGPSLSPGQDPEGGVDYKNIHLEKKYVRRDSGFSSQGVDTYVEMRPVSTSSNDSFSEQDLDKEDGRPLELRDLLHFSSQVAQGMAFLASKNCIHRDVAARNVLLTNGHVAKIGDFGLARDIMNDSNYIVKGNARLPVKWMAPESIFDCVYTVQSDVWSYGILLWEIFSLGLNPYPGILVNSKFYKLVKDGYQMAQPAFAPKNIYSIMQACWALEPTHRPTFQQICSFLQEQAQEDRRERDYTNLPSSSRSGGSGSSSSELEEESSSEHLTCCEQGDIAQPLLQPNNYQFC

Row | Compound | kinase still bound, per cent of control (CSF1R (human)) [%] | kinase still bound, per cent of control (CHEK1 (human)) [%] | kinase still bound, per cent of control (SLK (human)) [%] | kinase still bound, per cent of control (INSRR (human)) [%] | kinase still bound, per cent of control (NTRK2 (human)) [%] | kinase still bound, per cent of control (RPS6KA6 KD1 (human)) [%] | kinase still bound, per cent of control (PLK4 (human)) [%] | kinase still bound, per cent of control (SRPK3 (human)) [%] | kinase still bound, per cent of control (RIPK1 (human)) [%] | kinase still bound, per cent of control (NEK5 (human)) [%] | kinase still bound, per cent of control (CAMK1G (human)) [%] | kinase still bound, per cent of control (ULK3 (human)) [%] | kinase still bound, per cent of control (SRMS (human)) [%] | kinase still bound, per cent of control (CAMK2D (human)) [%] | kinase still bound, per cent of control (DCLK3 (human)) [%] | kinase still bound, per cent of control (PRKCH (human)) [%] | kinase still bound, per cent of control (TSSK1B (human)) [%] | kinase still bound, per cent of control (EPHA1 (human)) [%] | kinase still bound, per cent of control (CSNK2A1 (human)) [%] | kinase still bound, per cent of control (AXL (human)) [%] | further results
1 | CN(C)C/C=C/C(=O)Nc1cccc(Nc2ncc3c(n2)N(C)c2ccccc2C(=O)N3C)c1 | 0.1 | 8.5 | 7.3 | 100 | 4 | 9.2 | 0 | 63 | 28 | 58 | 52 | 45 | 57 | 62 | 0.5 | 100 | 53 | 55 | 100 | 7 | kinase still bound, per cent of control (MAP2K1 (human)): 82%; kinase still bound, per cent of control (MAP2K2 (human)): 78%; kinase still bound, per cent of control (PKN2 (human)): 64%; kinase still bound, per cent of control (FGFR1 (human)): 3.5%; kinase still bound, per cent of control (ITK (human)): 58%; kinase still bound, per cent of control (GSK3B (human)): 82%; kinase still bound, per cent of control (CHUK (human)): 100%; kinase still bound, per cent of control (CDK5 (human)): 100%; kinase still bound, per cent of control (TTK (human)): 28%; kinase still bound, per cent of control (SYK (human)): 50%; kinase still bound, per cent of control (DMPK (human)): 32%; kinase still bound, per cent of control (LYN (human)): 52%; kinase still bound, per cent of control (MAP3K12 (human)): 38%; kinase still bound, per cent of control (MAPKAPK2 (human)): 100%; kinase still bound, per cent of control (MAPK12 (human)): 83%; kinase still bound, per cent of control (PKN1 (human)): 69%; kinase still bound, per cent of control (FLT1 (human)): 83%; kinase still bound, per cent of control (RPS6KA4 KD2 (human)): 70%; kinase still bound, per cent of control (MARK4 (human)): 1.5%; kinase still bound, per cent of control (ROCK2 (human)): 58%
2 | COc1cc(C(=O)NC2CCN(C)CC2)ccc1Nc1ncc2c(n1)N(C1CCCC1)C(C)CC(=O)N2C (stereo not given) | 100 | 100 | 1.4 | 26 | 100 | 100 | 100 | 100 | 100 | 100 | 100 | 100 | 100 | 100 | 100 | 100 | 100 | 100 | 100 | 100 | kinase still bound, per cent of control (MAP2K1 (human)): 100%; kinase still bound, per cent of control (MAP2K2 (human)): 100%; kinase still bound, per cent of control (PKN2 (human)): 100%; kinase still bound, per cent of control (FGFR1 (human)): 100%; kinase still bound, per cent of control (ITK (human)): 100%; kinase still bound, per cent of control (GSK3B (human)): 100%; kinase still bound, per cent of control (CHUK (human)): 100%; kinase still bound, per cent of control (CDK5 (human)): 100%; kinase still bound, per cent of control (TTK (human)): 4.6%; kinase still bound, per cent of control (SYK (human)): 100%; kinase still bound, per cent of control (DMPK (human)): 100%; kinase still bound, per cent of control (LYN (human)): 100%; kinase still bound, per cent of control (MAP3K12 (human)): 100%; kinase still bound, per cent of control (MAPKAPK2 (human)): 100%; kinase still bound, per cent of control (MAPK12 (human)): 100%; kinase still bound, per cent of control (PKN1 (human)): 100%; kinase still bound, per cent of control (FLT1 (human)): 100%; kinase still bound, per cent of control (RPS6KA4 KD2 (human)): 100%; kinase still bound, per cent of control (MARK4 (human)): 100%; kinase still bound, per cent of control (ROCK2 (human)): 100%

Source: the kinase profiling compilation of Christmann-Franck et al. (2016)
